15 compounds from patent publication US9938273B2 (Plexxikon Inc., priority 2015, dated 2018) can be followed below.

The structures appear in SMILES notation.

The target of one test is T1, FLT3-ITD (Homo sapiens, UniProt P36888).
T1 sequence (P36888 1-993): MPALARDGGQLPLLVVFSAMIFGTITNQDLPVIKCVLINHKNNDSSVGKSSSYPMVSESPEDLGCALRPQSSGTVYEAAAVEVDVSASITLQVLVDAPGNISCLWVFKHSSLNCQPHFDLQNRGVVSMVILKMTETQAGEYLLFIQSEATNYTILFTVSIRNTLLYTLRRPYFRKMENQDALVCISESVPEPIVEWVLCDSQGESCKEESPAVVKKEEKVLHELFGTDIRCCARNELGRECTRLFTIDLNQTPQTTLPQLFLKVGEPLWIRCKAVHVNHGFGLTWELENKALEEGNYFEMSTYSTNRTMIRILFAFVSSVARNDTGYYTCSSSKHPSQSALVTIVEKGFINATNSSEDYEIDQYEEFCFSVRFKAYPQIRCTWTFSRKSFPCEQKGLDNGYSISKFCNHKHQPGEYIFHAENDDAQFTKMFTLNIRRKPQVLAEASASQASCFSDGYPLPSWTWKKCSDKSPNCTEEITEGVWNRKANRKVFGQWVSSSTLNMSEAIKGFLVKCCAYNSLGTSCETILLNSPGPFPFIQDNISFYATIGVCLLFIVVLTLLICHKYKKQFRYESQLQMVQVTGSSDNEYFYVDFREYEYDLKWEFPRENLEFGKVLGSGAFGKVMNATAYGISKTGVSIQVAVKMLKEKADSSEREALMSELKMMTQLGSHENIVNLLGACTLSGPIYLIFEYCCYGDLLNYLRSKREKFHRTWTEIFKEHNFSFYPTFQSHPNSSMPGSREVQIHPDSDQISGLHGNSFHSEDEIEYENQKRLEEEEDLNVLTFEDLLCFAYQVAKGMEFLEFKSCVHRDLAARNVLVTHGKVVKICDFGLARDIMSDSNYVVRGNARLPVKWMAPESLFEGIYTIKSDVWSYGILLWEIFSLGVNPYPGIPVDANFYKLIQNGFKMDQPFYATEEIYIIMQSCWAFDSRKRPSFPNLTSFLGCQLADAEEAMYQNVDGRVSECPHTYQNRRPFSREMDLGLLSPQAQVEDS
Nature of the test: AlphaScreen kinase assay with recombinant enzyme, FLT3-ITD. Format: biochemical. Conditions: 8pt; read-out: FLT3_ITD 8pt: IC50. On the procedure: In order to determine the effect of compounds on FLT3 catalytic activity, kinase assays using recombinant enzymes and AlphaScreen® technology have been established. The catalytic activity of c-kit activity was also measured to determine selectivity of the compounds. When the kinases are catalytically active, they phosphorylate a biotinylated peptide substrate on tyrosine residues. Using AlphaScreen® technology, the ability of the compounds to affect the catalytic activity of the kinases can be measured quantitatively. The peptide substrate is immobilized by the AlphaScreen® Streptavidin Donor beads and, upon phosphorylation by a tyrosine kinase, can bind to AlphaScreen® Anti-Phosphotyrosine (PY20) Acceptor beads. Upon excitation of these beads with laser light at 680 nm, singlet oxygen is produced. This singlet oxygen is rapidly quenched, unless the AlphaScreen® Anti-Phosphotyrosine (PY20) Acceptor beads are in close proximity, in which case a proximity signal can be measured at 580 nm. In the presence of catalytic activity, there is a very strong proximity signal. Selective kinase inhibitors affect a decrease in this proximity signal through a decrease in tyrosine phosphorylation of the peptide substrate.
The assay was performed as summarized below.
Poly (Glu4-Tyr) Peptide, biotin conjugate [Biotin-GG(EEEEY)10EE] (SEQ ID NO: 4)
Final concentration=30 nM
Final concentration for IC50 determination=10 μM (FLT3-D835Y or FLT3-ITD) or 100 μM (c-KIT)
AlphaScreen® Phosphotyrosine (PY20) Assay Kit
Final concentration=10 μg/mL
Dilute compounds in DMSO to 20× final concentration.
Add 1 μl of compound to each well of 384 well reaction plate (Perkin Elmer #6005359).
Mix enzyme and Poly (Glu4-Tyr) Peptide substrate at 1.33× final concentration in assay buffer.
Mix ATP at 5× final concentration in assay buffer.
Add 15 μL enzyme/substrate mixture to the reaction plate.
Add 4 μL of ATP to the reaction plate.
Mix Streptavidin Donor beads at 6× final concentration in Stop/Detection buffer.
Add 5 μL Streptavidin Donor beads to the reaction plate. Centrifuge 1 minute, shake to mix, and incubate at room temperature for 20 minutes.
Mix Anti-Phosphotyrosine (PY20) Acceptor beads at 6× final concentration in Stop/Detection buffer.
Add 5 μL Anti-Phosphotyrosine (PY20) beads to the reaction plate.
Centrifuge 1 minute, shake to mix, and incubate at room temperature for 60 minutes.
Read plate on Wallac EnVision™ 2103 Multilabel Reader.

In another test the target is T2, FLT3-D835Y (Homo sapiens, UniProt P36888, D835Y).
T2 construct: purchased Invitrogen PV3967
T2 sequence (P36888 27-993 D835Y): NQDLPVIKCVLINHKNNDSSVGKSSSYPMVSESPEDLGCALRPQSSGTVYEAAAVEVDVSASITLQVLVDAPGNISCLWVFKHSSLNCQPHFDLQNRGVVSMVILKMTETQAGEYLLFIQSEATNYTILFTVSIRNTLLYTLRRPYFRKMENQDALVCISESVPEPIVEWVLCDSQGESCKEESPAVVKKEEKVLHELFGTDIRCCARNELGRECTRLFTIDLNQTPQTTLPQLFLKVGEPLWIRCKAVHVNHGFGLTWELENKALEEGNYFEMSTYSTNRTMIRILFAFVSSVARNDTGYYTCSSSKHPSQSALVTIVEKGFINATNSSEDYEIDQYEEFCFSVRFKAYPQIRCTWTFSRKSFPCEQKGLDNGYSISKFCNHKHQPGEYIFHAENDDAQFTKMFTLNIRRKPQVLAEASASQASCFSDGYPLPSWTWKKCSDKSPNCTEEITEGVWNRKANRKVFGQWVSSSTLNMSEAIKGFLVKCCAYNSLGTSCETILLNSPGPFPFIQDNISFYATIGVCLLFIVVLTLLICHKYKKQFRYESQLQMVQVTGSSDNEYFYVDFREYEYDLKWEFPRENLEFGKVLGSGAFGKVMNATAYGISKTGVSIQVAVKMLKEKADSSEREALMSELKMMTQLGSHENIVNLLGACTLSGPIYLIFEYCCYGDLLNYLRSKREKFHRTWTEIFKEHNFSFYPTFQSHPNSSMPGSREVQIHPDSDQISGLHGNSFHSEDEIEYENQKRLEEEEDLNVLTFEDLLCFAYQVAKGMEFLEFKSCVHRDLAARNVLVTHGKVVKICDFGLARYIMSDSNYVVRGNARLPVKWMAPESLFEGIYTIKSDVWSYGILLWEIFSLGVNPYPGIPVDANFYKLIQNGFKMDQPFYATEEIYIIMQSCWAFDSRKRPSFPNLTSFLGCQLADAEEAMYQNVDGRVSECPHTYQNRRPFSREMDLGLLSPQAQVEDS
Put plainly: AlphaScreen kinase assay with recombinant enzyme, FLT3-D835Y. The test is classed as biochemical. Conditions: 8pt, GMean. The procedure, abridged:
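Tyrosine phosphorylation of biotin-poly(Glu4-Tyr) substrate by recombinant enzyme is detected with PY20 acceptor and streptavidin donor beads after room-temperature incubations of 20 and 60 min. IC50 values were derived at a final 10 μM (FLT3-D835Y, FLT3-ITD) or 100 μM (c-KIT).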

The IC50 is the concentration that inhibits the measured activity by half. As to `N#C[C@H]1CCN(C(=O)c2cccc(-c3cnc4[nH]c(-c5ccccc5)cc4c3)n2)C1` [Compound P-0117, (3S)-1-[6-(2-phenyl-1H-pyrrolo[2,3-b]pyridin-5-yl)pyridine-2-carbonyl]pyrrolidine-3-carbonitrile], the IC50 on FLT3-ITD and on FLT3-D835Y was 0.0001 to 10 µM each time.

`CC(C)(C#N)NC(=O)c1cccc(-c2cnc3[nH]c(-c4ccccc4)cc3c2)n1` [Compound P-0118, N-(1-cyano-1-methyl-ethyl)-6-(2-phenyl-1H-pyrrolo[2,3-b]pyridin-5-yl)pyridine-2-carboxamide]: the IC50 at FLT3-ITD and at FLT3-D835Y was 0.0001 to 10 µM in each case.

With `CN(CCC#N)C(=O)c1cccc(-c2cnc3[nH]c(-c4ccccc4)cc3c2)n1` [Compound P-0119, N-(2-cyanoethyl)-N-methyl-6-(2-phenyl-1H-pyrrolo[2,3-b]pyridin-5-yl)pyridine-2-carboxamide], the IC50 on FLT3-ITD and at FLT3-D835Y was 0.0001 to 10 µM in each case.

Take `N#CC1CCN(C(=O)c2cccc(-c3cnc4[nH]c(C5=CCCCC5)cc4c3)n2)C1` (stereo not drawn) [Compound P-0120, 1-[6-[2-(cyclohexen-1-yl)-1H-pyrrolo[2,3-b]pyridin-5-yl]pyridine-2-carbonyl]pyrrolidine-3-carbonitrile]: the IC50 at FLT3-ITD and on FLT3-D835Y was 0.0001 to 10 µM throughout.

As to `N#C[C@@H]1CCN(C(=O)c2cccc(-c3cnc4[nH]c(-c5ccccc5)cc4c3)n2)C1` [Compound P-0122, (3R)-1-[6-(2-phenyl-1H-pyrrolo[2,3-b]pyridin-5-yl)pyridine-2-carbonyl]pyrrolidine-3-carbonitrile], the IC50 on FLT3-ITD and on FLT3-D835Y was 0.0001 to 10 µM each time.

With `CC(C)(C#N)CNC(=O)c1cccc(-c2cnc3[nH]c(C4=CCCCC4)cc3c2)n1` [Compound P-0123, N-(2-cyano-2-methyl-propyl)-6-[2-(cyclohexen-1-yl)-1H-pyrrolo[2,3-b]pyridin-5-yl]pyridine-2-carboxamide], the IC50 at FLT3-ITD and at FLT3-D835Y was 0.0001 to 10 µM in each case.

Turning to `N#CCCNC(=O)c1cccc(-c2cnc3[nH]c(-c4ccccc4)c(Cl)c3c2)n1` [Compound P-0125, 6-(3-chloro-2-phenyl-1H-pyrrolo[2,3-b]pyridin-5-yl)-N-(2-cyanoethyl)pyridine-2-carboxamide], the IC50 at FLT3-ITD and at FLT3-D835Y was 0.0001 to 10 µM in each case.

In the case of `CC(C)(C#N)CNC(=O)c1cccc(-c2cnc3[nH]c(-c4ccccc4)c(Br)c3c2)n1` [Compound P-0126, 6-(3-bromo-2-phenyl-1H-pyrrolo[2,3-b]pyridin-5-yl)-N-(2-cyano-2-methyl-propyl)pyridine-2-carboxamide], the IC50 at FLT3-ITD and on FLT3-D835Y was 0.0001 to 10 µM each time.

As for `CC(C)(C#N)CNC(=O)c1cccc(-c2cnc3[nH]c(-c4ccccc4)c(I)c3c2)n1` [Compound P-0127, N-(2-cyano-2-methyl-propyl)-6-(3-iodo-2-phenyl-1H-pyrrolo[2,3-b]pyridin-5-yl)pyridine-2-carboxamide], the IC50 on FLT3-ITD and at FLT3-D835Y was 0.0001 to 10 µM throughout.

Consider `Cc1cc(C#N)ccc1-c1cc2cc(-c3cccc(C(=O)N4CCC(C#N)C4)n3)cnc2[nH]1` (stereo not drawn) [Compound P-0130, 1-[6-[2-(4-cyano-2-methyl-phenyl)-1H-pyrrolo[2,3-b]pyridin-5-yl]pyridine-2-carbonyl]pyrrolidine-3-carbonitrile], for which the IC50 at FLT3-ITD and at FLT3-D835Y was 0.0001 to 10 µM throughout.

For `CC1(C)CC=C(c2cc3cc(-c4cccc(C(=O)N5CCC(C#N)C5)n4)cnc3[nH]2)CC1` (stereo not drawn) [Compound P-0131, 1-[6-[2-(4,4-dimethylcyclohexen-1-yl)-1H-pyrrolo[2,3-b]pyridin-5-yl]pyridine-2-carbonyl]pyrrolidine-3-carbonitrile], the 50% inhibitory concentration (IC50) at FLT3-ITD and at FLT3-D835Y was 0.0001 to 10 µM throughout.

`N#CC1CCN(C(=O)c2cccc(-c3cnc4[nH]c(C5=CCOCC5)cc4c3)n2)C1` (stereo not drawn) [Compound P-0132, 1-[6-[2-(3,6-dihydro-2H-pyran-4-yl)-1H-pyrrolo[2,3-b]pyridin-5-yl]pyridine-2-carbonyl]pyrrolidine-3-carbonitrile]: the IC50 on FLT3-ITD and on FLT3-D835Y was 0.0001 to 10 µM in each case.

On to `N#Cc1cccc(-c2cc3cc(-c4cccc(C(=O)N5CCC(C#N)C5)n4)cnc3[nH]2)c1` (stereo not drawn) [Compound P-0133, 1-[6-[2-(3-cyanophenyl)-1H-pyrrolo[2,3-b]pyridin-5-yl]pyridine-2-carbonyl]pyrrolidine-3-carbonitrile], for which the IC50 at FLT3-ITD and on FLT3-D835Y was 0.0001 to 10 µM each time.

Regarding `N#CC1CCN(C(=O)c2cccc(-c3cnc4[nH]c(-c5cnn(C(F)F)c5)cc4c3)n2)C1` (stereo not drawn) [Compound P-0134, 1-[6-[2-[1-(difluoromethyl)pyrazol-4-yl]-1H-pyrrolo[2,3-b]pyridin-5-yl]pyridine-2-carbonyl]pyrrolidine-3-carbonitrile], the IC50 at FLT3-ITD and on FLT3-D835Y was 0.0001 to 10 µM in each case.

Take `CC(C)(C)OC(=O)N1CC=C(c2cc3cc(-c4cccc(C(=O)N5CCC(C#N)C5)n4)cnc3[nH]2)C1` (stereo not drawn) [Compound P-0135, tert-butyl 3-[5-[6-(3-cyanopyrrolidine-1-carbonyl)-2-pyridyl]-1H-pyrrolo[2,3-b]pyridin-2-yl]-2,5-dihydropyrrole-1-carboxylate]: the IC50 at FLT3-ITD and on FLT3-D835Y was 0.0001 to 10 µM in each case.
